Results as given in patent US12661410B2, “Compounds for targeted degradation of RET” (C4 Therapeutics, Inc., priority 2020, dated 2026).
Changes are numbered by the printed parent chain. Where two headings read alike, the source gives them in different places.

What was measured:
[1] = target: T1, RET(KD: 658-1114 G810R) (Homo sapiens, UniProt P07949, G810R); assay: HiBiT-Degradation, RET G810R degradation assay (Nano-Glo HiBiT Lytic), 293T.165 cells; format: cell-based; conditions: for Emax / DC50: 6.0 hours; for Emax: % remaining protein, read-out: 293T.165 RET(KD: 658-1114 G810R) 6.0 hours (Emax); for DC50: read-out: 293T.165 RET(KD: 658-1114 G810R) 6.0 hours (DC50)
T1 construct: 658-1114; expressed in transfected cells; host or cells: 293T.165 (293T cells, generated in-house)
T1 sequence (P07949 658-1114 G810R): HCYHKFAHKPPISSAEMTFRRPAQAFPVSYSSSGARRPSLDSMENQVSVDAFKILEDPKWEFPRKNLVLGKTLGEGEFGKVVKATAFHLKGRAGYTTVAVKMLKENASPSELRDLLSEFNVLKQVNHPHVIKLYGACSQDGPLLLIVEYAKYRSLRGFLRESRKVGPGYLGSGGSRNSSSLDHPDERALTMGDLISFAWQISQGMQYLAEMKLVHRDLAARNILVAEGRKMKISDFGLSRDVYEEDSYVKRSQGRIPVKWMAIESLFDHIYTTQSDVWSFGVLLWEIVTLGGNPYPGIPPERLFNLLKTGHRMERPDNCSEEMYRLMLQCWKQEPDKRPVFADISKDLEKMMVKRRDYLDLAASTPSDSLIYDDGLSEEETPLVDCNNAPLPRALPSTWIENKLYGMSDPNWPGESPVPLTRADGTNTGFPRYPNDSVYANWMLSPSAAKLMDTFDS
Outline: (§1)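 Luminescence readout of HiBiT-tagged RET kinase domain remaining after 6 h compound exposure. Cells: 293T.144 (wild type) or 293T.165 (G810R), 11 half-log doses up to 10 μM, duplicates. DC50 and Emax as % remaining protein taken from curve fits.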

[2] = target: T2, RET (658-1114) (Homo sapiens, UniProt P07949); assay: HiBiT-Degradation, RET wild-type degradation assay (Nano-Glo HiBiT Lytic), 293T.144 cells; format: cell-based; conditions: for Emax / DC50: 6.0 hours; for Emax: read-out: 293T.144 RET (658-1114) 6.0 hours (Emax); for DC50: read-out: 293T.144 RET (658-1114) 6.0 hours (DC50)
T2 construct: 658-1114; expressed in transfected cells; host or cells: 293T.144 (293T cells, generated in-house)
T2 sequence (P07949 658-1114): T1 sequence (P07949 658-1114 G810R) with R153G
Outline: as §1

[3] = half-maximal degradation concentration

Row | Compound | 293T.165 RET(KD: 658-1114 G810R) 6.0 hours (IP) [nM] [1] | Emax [1] [%] | DC50 [1, 3] [nM] | 293T.144 RET (658-1114) 6.0 hours (IP) [nM] [2] | Emax ([2]; % remaining protein) [%] | DC50 [2, 3] [nM] | 293T.165 RET(KD: 658-1114 G810R) 6.0 hours (Emax) ([1]; HiBiT-Degradation) | 293T.165 RET(KD: 658-1114 G810R) 6.0 hours (IP) [nM] ([1]; HiBiT-Degradation) | DC50 ([1]; HiBiT-Degradation) [nM] | 293T.144 RET (658-1114) 6.0 hours (IP) [nM] ([2]; HiBiT-Degradation) | DC50 ([2]; HiBiT-Degradation) [nM] | Emax ([2]; HiBiT-Degradation) [%]
1 | CCC1(C(=O)NC(C)C)CCN(c2ccc(-c3nc(-c4cnn(C5CCN(CC6(O)CCN(c7ccc(NC8CCC(=O)NC8=O)cc7F)CC6)CC5)c4)cn4ncc(C#N)c34)cn2)CC1 (centres unmarked) [Compound 118, 1-(5-(3-cyano-6-(1-(1-((1-(4-((2,6-dioxopiperidin-3-yl)amino)-2-fluorophenyl)-4-hydroxypiperidin-4-yl)methyl)piperidin-4-yl)-1H-pyrazol-4-yl)pyrazolo[1,5-a]pyrazin-4-yl)pyridin-2-yl)-4-ethyl-N-isopropylpiperidine-4-carboxamide] | ++++ (<50 nM = ++++) | < 30 | < 50 | ++++ (<50 nM = ++++) | < 30 | < 50 |  |  |  |  |  | 
2 | CCC1(C(=O)NC(C)C)CCN(c2ccc(-c3nc(-c4cnn(C5CCN(C(=O)CC6(O)CCN(c7cc(OC)c(NC8CCC(=O)NC8=O)cc7Cl)CC6)CC5)c4)cn4ncc(C#N)c34)cn2)CC1 (centres unmarked) [Compound 90, 1-[5-[6-[1-[1-[2-[1-[2-chloro-4-[(2,6-dioxo-3-piperidyl)amino]-5-methoxy-phenyl]-4-hydroxy-4-piperidyl]acetyl]-4-piperidyl]pyrazol-4-yl]-3-cyano-pyrazolo[1,5-a]pyrazin-4-yl]-2-pyridyl]-4-ethyl-N-isopropyl-piperidine-4-carboxamide] | ++++ (<50 nM = ++++) | < 30 | < 50 | ++++ (<50 nM = ++++) | < 30 | < 50 |  |  |  |  |  | 
3 | CCC1(C(=O)NC(C)C)CCN(c2ccc(-c3cc(-c4cnn(C5CCN(C(=O)CN6CCC(c7ccc8c(N9CCC(=O)NC9=O)nn(C)c8c7)CC6)CC5)c4)cn4ncc(C#N)c34)cn2)CC1 [Compound 63, 1-[5-[3-cyano-6-[1-[1-[2-[4-[3-(2,4-dioxohexahydropyrimidin-1-yl)-1-methyl-indazol-6-yl]-1-piperidyl]acetyl]-4-piperidyl]pyrazol-4-yl]pyrazolo[1,5-a]pyridin-4-yl]-2-pyridyl]-4-ethyl-N-isopropyl-piperidine-4-carboxamide] |  | < 30 | < 100 |  |  |  | ++++ (< 30% = ++++) | ++++ (< 50 nM = ++++) | < 100 | ++++ (< 50 nM = ++++) | < 50 | < 30
4 | N#Cc1cnn2cc(-c3ccc(N4CCN(C(=O)CC5(O)CCN(c6ccc(NC7CCC(=O)NC7=O)cc6F)CC5)CC4)cc3)cc(-c3ccc(N4CCN(C(=O)Cc5ccc(F)cn5)CC4)nc3)c12 (centres unmarked) [Compound 26, 6-[4-[4-[2-[1-[4-[(2,6-Dioxo-3-piperidyl)amino]-2-fluoro-phenyl]-4-hydroxy-4-piperidyl]acetyl]piperazin-1-yl]phenyl]-4-[6-[4-[2-(5-fluoro-2-pyridyl)acetyl]piperazin-1-yl]-3-pyridyl]pyrazolo[1,5-a]pyridine-3-carbonitrile] |  | < 50 | < 50 |  |  |  | +++ (<50% = +++) | ++++ (< 50 nM = ++++) | < 50 | ++++ (< 50 nM = ++++) | < 50 | < 30
5 | CCC1(c2ncccn2)CCN(c2ccc(-c3nc(-c4cnn([C@H]5CC[C@H](N6CCC(c7ccc(N[C@@H]8CCC(=O)NC8=O)cc7F)CC6)CC5)c4)cn4ncc(C#N)c34)cn2)CC1 (single isomer, unassigned) [Compound 140] | ++++ (<50 nM = ++++) | < 50 | < 100 | ++++ (<50 nM = ++++) | < 30 | < 50 |  |  |  |  |  | 
6 | Cn1nc(N2CCC(=O)NC2=O)c2ccc(C3CCN(CC(=O)N4CCN(c5ccc(-c6cc(-c7ccc(N8CCN(Cc9ccccn9)CC8)nc7)c7c(C#N)cnn7c6)cc5)CC4)CC3)cc21 [Compound 65, 6-[4-[4-[2-[4-[3-(2,4-dioxohexahydropyrimidin-1-yl)-1-methyl-indazol-6-yl]-1-piperidyl]acetyl]piperazin-1-yl]phenyl]-4-[6-[4-(2-pyridylmethyl)piperazin-1-yl]-3-pyridyl]pyrazolo[1,5-a]pyridine-3-carbonitrile] |  | < 50 | < 100 |  |  |  | +++ (<50% = +++) | +++ (<100 nM = +++) | < 100 | ++++ (< 50 nM = ++++) | < 50 | < 30
7 | CCC1(C(=O)NC(C)C)CCN(c2ccc(-c3nc(-c4cnn(C5CCN(C(=O)CC6(OC)CCN(c7ccc(NC8CCC(=O)NC8=O)cc7F)CC6)CC5)c4)cn4ncc(C#N)c34)cn2)CC1 (centres unmarked) [Compound 92, 1-[5-[3-cyano-6-[1-[1-[2-[1-[4-[(2,6-dioxo-3-piperidyl)amino]-2-fluoro-phenyl]-4-methoxy-4-piperidyl]acetyl]-4-piperidyl]pyrazol-4-yl]pyrazolo[1,5-a]pyrazin-4-yl]-2-pyridyl]-4-ethyl-N-isopropyl-piperidine-4-carboxamide] | ++++ (<50 nM = ++++) | < 30 | < 100 | ++++ (<50 nM = ++++) | < 30 | < 50 |  |  |  |  |  | 
8 | CCC1(C(=O)NC(C)C)CCN(c2ccc(-c3nc(-c4cnn(C5CCN(C(=O)CC6(O)CC7(CN(c8ccc(NC9CCC(=O)NC9=O)cc8F)C7)C6)CC5)c4)cn4ncc(C#N)c34)cn2)CC1 (centres unmarked) [Compound 97, 1-[5-[3-cyano-6-[1-[1-[2-[2-[4-[(2,6-dioxo-3-piperidyl)amino]-2-fluoro-phenyl]-6-hydroxy-2-azaspiro[3.3]heptan-6-yl]acetyl]-4-piperidyl]pyrazol-4-yl]pyrazolo[1,5-a]pyrazin-4-yl]-2-pyridyl]-4-ethyl-N-isopropyl-piperidine-4-carboxamide] | ++++ (<50 nM = ++++) | < 50 | < 100 | ++++ (<50 nM = ++++) | < 30 | < 50 |  |  |  |  |  | 
9 | CCC1(C(=O)NC(C)C)CCN(c2ccc(-c3cc(-c4cnn(C5CCN(C(=O)CC6(O)CCN(c7ccc(NC8CCC(=O)NC8=O)cc7F)CC6)CC5)c4)cn4ncc(C#N)c34)cn2)CC1 (centres unmarked) [Compound 4, 1-[5-[3-cyano-6-[1-[1-[2-[1-[4-[(2,6-dioxo-3-piperidyl)amino]-2-fluoro-phenyl]-4-hydroxy-4-piperidyl]acetyl]-4-piperidyl]pyrazol-4-yl]pyrazolo[1,5-a]pyridin-4-yl]-2-pyridyl]-4-ethyl-N-isopropyl-piperidine-4-carboxamide] |  | < 30 | < 50 |  |  |  | ++++ (< 30% = ++++) | ++++ (< 50 nM = ++++) | < 50 | ++++ (< 50 nM = ++++) | < 50 | < 30
10 | CCC1(C(=O)NC2CCC2)CCN(c2ccc(-c3nc(-c4cnn([C@H]5CC[C@H](N6CCC(c7ccc(NC8CCC(=O)NC8=O)cc7)CC6)CC5)c4)cn4ncc(C#N)c34)cn2)CC1 (single isomer, unassigned) [Compound 126, 1-(5-(3-cyano-6-(1-((1r, 4r)-4-(4-(4-((2,6-dioxopiperidin-3-yl)amino)phenyl)piperidin-1-yl)cyclohexyl)-1H-pyrazol-4-yl)pyrazolo[1,5-a]pyrazin-4-yl)pyridin-2-yl)-N-cyclobutyl-4-ethylpiperidine-4-carboxamide] | ++++ (<50 nM = ++++) | < 30 | < 50 | ++++ (<50 nM = ++++) | < 30 | < 50 |  |  |  |  |  | 
